PubChem BioAssay (NCI)
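1) Cells in 96-well plates. 2) Compound, 48 h, 5 concentrations. 3) Linear interpolation between surrounding doses. 4) Unreached endpoint = highest concentration. GI50 marks 50% less growth. TGI is the concentration that stops growth completely.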

How the values were obtained:
Test in all cases: NCI tumour cell line growth inhibition, 48 h
786-0 renal = system: 786-0 renal
A498 renal = system: A498 renal
A549 NSCLC = system: A549 NSCLC
ACHN renal = system: ACHN renal
BT-549 breast = system: BT-549 breast
CAKI-1 renal = system: CAKI-1 renal
CCRF-CEM leukemia = system: CCRF-CEM leukemia
COLO 205 colon = system: COLO 205 colon
DU-145 prostate = system: DU-145 prostate
EKVX NSCLC = system: EKVX NSCLC
HCC-2998 colon = system: HCC-2998 colon
HCT-116 colon = system: HCT-116 colon
HCT-15 colon = system: HCT-15 colon
HL-60(TB) leukemia = system: HL-60(TB) leukemia
HOP-62 NSCLC = system: HOP-62 NSCLC
HOP-92 NSCLC = system: HOP-92 NSCLC
HS 578T breast = system: HS 578T breast
HT29 colon = system: HT29 colon
IGROV1 ovarian = system: IGROV1 ovarian
KM12 colon = system: KM12 colon
LOX IMVI melanoma = system: LOX IMVI melanoma
M14 melanoma = system: M14 melanoma
MALME-3M melanoma = system: MALME-3M melanoma
MCF7 breast = system: MCF7 breast
MDA-MB-231 breast = system: MDA-MB-231 breast
MDA-MB-435 = system: MDA-MB-435
MOLT-4 leukemia = system: MOLT-4 leukemia
NCI-H226 lung = system: NCI-H226 lung
NCI-H23 lung = system: NCI-H23 lung
NCI-H460 lung = system: NCI-H460 lung
NCI-H522 lung = system: NCI-H522 lung
NCI/ADR-RES ovarian = system: NCI/ADR-RES ovarian
OVCAR-3 ovarian = system: OVCAR-3 ovarian
OVCAR-4 ovarian = system: OVCAR-4 ovarian
OVCAR-5 ovarian = system: OVCAR-5 ovarian
OVCAR-8 ovarian = system: OVCAR-8 ovarian
PC-3 prostate = system: PC-3 prostate
RPMI-8226 leukemia = system: RPMI-8226 leukemia
RXF 393 renal = system: RXF 393 renal
SF-268 CNS = system: SF-268 CNS
SF-295 CNS = system: SF-295 CNS
SF-539 CNS = system: SF-539 CNS
SK-MEL-2 melanoma = system: SK-MEL-2 melanoma
SK-MEL-28 melanoma = system: SK-MEL-28 melanoma
SK-MEL-5 melanoma = system: SK-MEL-5 melanoma
SK-OV-3 ovarian = system: SK-OV-3 ovarian
SN12C renal = system: SN12C renal
SNB-19 CNS = system: SNB-19 CNS
SNB-75 CNS = system: SNB-75 CNS
SR leukemia = system: SR leukemia
SW-620 colon = system: SW-620 colon
T-47D breast = system: T-47D breast
TK-10 renal = system: TK-10 renal
U251 CNS = system: U251 CNS
UACC-257 melanoma = system: UACC-257 melanoma
UACC-62 melanoma = system: UACC-62 melanoma
UO-31 renal = system: UO-31 renal

COc1cc2c3c(n(CCCNC4CCCCC4)c(=O)c2cc1OC)-c1cc2c(cc1C3=O)OCO2
GI50 (786-0 renal): 1.73 µM
TGI (786-0 renal): 3.19 µM
GI50 (A498 renal): 20.8 µM
TGI (A498 renal): 49.1 µM
GI50 (A549 NSCLC): 5.87 µM
TGI (A549 NSCLC): 18.5 µM
GI50 (ACHN renal): 8.95 µM
TGI (ACHN renal): 33.5 µM
GI50 (BT-549 breast): 15.2 µM
TGI (BT-549 breast): 31.9 µM
GI50 (CAKI-1 renal): 7.69 µM
TGI (CAKI-1 renal): 22.9 µM
GI50 (CCRF-CEM leukemia): 0.319 µM
TGI (CCRF-CEM leukemia): 13.7 µM
GI50 (COLO 205 colon): 8 µM
TGI (COLO 205 colon): > 54 µM
GI50 (DU-145 prostate): 1.83 µM
TGI (DU-145 prostate): 3.74 µM
GI50 (EKVX NSCLC): 14.3 µM
TGI (EKVX NSCLC): > 63.8 µM
GI50 (HCC-2998 colon): 3.69 µM
TGI (HCC-2998 colon): 8.34 µM
GI50 (HCT-116 colon): 1.59 µM
TGI (HCT-116 colon): 3.03 µM
GI50 (HCT-15 colon): 1.62 µM
TGI (HCT-15 colon): 3.21 µM
GI50 (HL-60(TB) leukemia): 1.62 µM
TGI (HL-60(TB) leukemia): 4.87 µM
GI50 (HOP-62 NSCLC): 15.8 µM
TGI (HOP-62 NSCLC): 43.3 µM
GI50 (HOP-92 NSCLC): 15.5 µM
TGI (HOP-92 NSCLC): 42 µM
GI50 (HS 578T breast): 49 µM
TGI (HS 578T breast): > 100 µM
GI50 (HT29 colon): 1.82 µM
TGI (HT29 colon): 3.66 µM
GI50 (IGROV1 ovarian): 15.4 µM
TGI (IGROV1 ovarian): > 100 µM
GI50 (KM12 colon): 11.7 µM
TGI (KM12 colon): > 59 µM
GI50 (LOX IMVI melanoma): 1.43 µM
TGI (LOX IMVI melanoma): 3 µM
GI50 (M14 melanoma): 18.3 µM
TGI (M14 melanoma): 39.2 µM
GI50 (MALME-3M melanoma): 14.4 µM
TGI (MALME-3M melanoma): 29.1 µM
GI50 (MCF7 breast): 1.2 µM
TGI (MCF7 breast): 2.84 µM
GI50 (MDA-MB-231 breast): 2.18 µM
TGI (MDA-MB-231 breast): 5.13 µM
GI50 (MDA-MB-435): 14.7 µM
TGI (MDA-MB-435): 34.3 µM
GI50 (MOLT-4 leukemia): 0.354 µM
TGI (MOLT-4 leukemia): 3.93 µM
GI50 (NCI-H226 lung): 24.8 µM
TGI (NCI-H226 lung): > 67 µM
GI50 (NCI-H23 lung): 1.86 µM
TGI (NCI-H23 lung): 4.22 µM
GI50 (NCI-H460 lung): 1.52 µM
TGI (NCI-H460 lung): 3.24 µM
GI50 (NCI-H522 lung): 10.8 µM
TGI (NCI-H522 lung): 59.2 µM
GI50 (NCI/ADR-RES ovarian): 1.78 µM
TGI (NCI/ADR-RES ovarian): 4.45 µM
GI50 (OVCAR-3 ovarian): 10.8 µM
TGI (OVCAR-3 ovarian): 33 µM
GI50 (OVCAR-4 ovarian): 10.9 µM
TGI (OVCAR-4 ovarian): 23.9 µM
GI50 (OVCAR-5 ovarian): 20.3 µM
TGI (OVCAR-5 ovarian): 48.4 µM
GI50 (OVCAR-8 ovarian): 18 µM
TGI (OVCAR-8 ovarian): 36.6 µM
GI50 (PC-3 prostate): 16.8 µM
TGI (PC-3 prostate): 85.6 µM
GI50 (RPMI-8226 leukemia): 1.82 µM
TGI (RPMI-8226 leukemia): 6.39 µM
GI50 (RXF 393 renal): 9.22 µM
TGI (RXF 393 renal): 37.8 µM
GI50 (SF-268 CNS): 9.87 µM
TGI (SF-268 CNS): > 69 µM
GI50 (SF-295 CNS): 12.1 µM
TGI (SF-295 CNS): > 58.1 µM
GI50 (SF-539 CNS): 4.57 µM
TGI (SF-539 CNS): 8.91 µM
GI50 (SK-MEL-2 melanoma): > 100 µM
TGI (SK-MEL-2 melanoma): > 100 µM
GI50 (SK-MEL-28 melanoma): 22.7 µM
TGI (SK-MEL-28 melanoma): > 55.7 µM
GI50 (SK-MEL-5 melanoma): 18.4 µM
TGI (SK-MEL-5 melanoma): 36.3 µM
GI50 (SK-OV-3 ovarian): 20.8 µM
TGI (SK-OV-3 ovarian): 51.1 µM
GI50 (SN12C renal): 18.2 µM
TGI (SN12C renal): > 57.8 µM
GI50 (SNB-19 CNS): 26.2 µM
TGI (SNB-19 CNS): > 76.5 µM
GI50 (SNB-75 CNS): 11.9 µM
TGI (SNB-75 CNS): 25.5 µM
GI50 (SR leukemia): 0.245 µM
TGI (SR leukemia): 4.17 µM
GI50 (SW-620 colon): 1.44 µM
TGI (SW-620 colon): 4.18 µM
GI50 (T-47D breast): 20.8 µM
TGI (T-47D breast): 61.4 µM
GI50 (TK-10 renal): 20.9 µM
TGI (TK-10 renal): 36.7 µM
GI50 (U251 CNS): 7.85 µM
TGI (U251 CNS): 51.6 µM
GI50 (UACC-257 melanoma): 18.9 µM
TGI (UACC-257 melanoma): 43 µM
GI50 (UACC-62 melanoma): 27 µM
TGI (UACC-62 melanoma): > 66.5 µM
GI50 (UO-31 renal): 13.3 µM
TGI (UO-31 renal): 27.3 µM
